Source: patent publication US8188097B2, “Pyrazolo[1,5-A]pyrimidine compounds” (Mitsubishi Tanabe Pharma Corporation, priority 2005, dated 2012)

Target: T1, Human CB1 receptor (Homo sapiens, UniProt P21554)
T1 construct: host or cells: CHO cells (hCB1/CHO#C3), membrane fraction prepared in house
Experiment: Human CB1 receptor binding assay ([3H]-CP55940 displacement, hCB1/CHO membrane fraction)
Details: human CB1 receptor membrane preparation, 30° C. for 90 minutes
Method: Human Cb1 Receptor Binding Assay
(1) Preparation of Human Cb1 Receptor (Membrane Fraction):
Human CB1-expressing cell line: hCB1/CHO#C3 (Euroscreen)
Buffer A: 50 mM tris-HCl (pH 7.5) containing ethylenediaminetetraacetic acid (2.5 mM), MgCl2 (5 mM) and sucrose (200 mM)
The receptor-expressing cells cultivated in the above medium were washed with phosphate buffer (×2) and thereto was added Buffer A (2 mL) under ice-cooling or 4° C. (the following procedures were also carried out at the same temperature). The cells were collected by using a cell-scraper, treated by a microtip-type ultrasonicator for 20 seconds (pulse-on: 2 sec, pulse-off: 1 sec) and centrifuged (500×g, 15 min). The supernatant was separated and centrifuged (43000×g, 60 min). The resultant pellet was suspended in Buffer A and homogenized with a potter-type homogenizer. To the homogenate was added an equal volume of 80% glycerol and stored at −80° C.
(2) Procedure of Cb1 Receptor Binding Assay:
Buffer B: 50 mM tris-HCl (pH 7.5) containing ethylenediaminetetraacetic acid (2.5 mM), MgCl2 (5 mM) and bovine serum albumine (2 mg/mL, fatty acid-free, SIGMA-A7030)
Buffer C: 50 mM tris-HCl (pH 7.5) containing ethylenediaminetetraacetic acid (2.5 mM), MgCl2 (5 mM) and bovine serum albumine (2 mg/mL, SIGMA-A7906)
Coating solution: 0.3% ethyleneimine polymer
Radioligand: [^3H]-CP55940 (30 nM/7992 dpm/mL) prepared by diluting 8.3 μM solution of the radioligand with Buffer B
Each well of the assay plate (96-well, Costar Code#3371) was filled with Buffer B (140 μL), a solution of each test compound in dimethylsulfoxide (20 μL, final concentration: […]), radioligand (20 μL) and membrane preparation (20 μL, 0.5 μg/20 μL) and the mixture was incubated at 30° C. for 90 minutes to proceed the binding reaction. The reaction mixture was harvested to each well of a plate presoaked with the above coating solution (Packard Unifilter GF/B, #6005177). The plate was washed with Buffer C (200 μL×10) and dried at 50° C. for 1 hour and Microscinti 40 (40 μL) was added to each well. The bound radiolabel was quantitated by scintillation counting (Top Count NXT, Packard). IC50 value of each test compound against the radioligand-binding to CB1 receptors was calculated on the basis of the quantitated radiolabel activity by using Graphpad Prism 3.02.

T1 sequence (P21554 whole entry): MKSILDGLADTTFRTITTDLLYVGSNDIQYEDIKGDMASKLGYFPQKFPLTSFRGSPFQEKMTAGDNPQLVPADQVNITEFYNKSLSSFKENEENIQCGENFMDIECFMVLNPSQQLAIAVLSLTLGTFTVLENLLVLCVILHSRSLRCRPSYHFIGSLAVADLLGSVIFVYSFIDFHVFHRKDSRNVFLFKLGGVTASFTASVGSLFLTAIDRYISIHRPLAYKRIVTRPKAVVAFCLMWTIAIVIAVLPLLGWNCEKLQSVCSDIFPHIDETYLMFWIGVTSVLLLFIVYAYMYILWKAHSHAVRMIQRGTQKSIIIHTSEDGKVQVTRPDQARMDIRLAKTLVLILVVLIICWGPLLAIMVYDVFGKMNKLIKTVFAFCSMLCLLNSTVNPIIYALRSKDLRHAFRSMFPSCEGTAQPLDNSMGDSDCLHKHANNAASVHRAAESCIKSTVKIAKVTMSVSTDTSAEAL

SMILES | IC50 (nM)
Cc1nn2c(-c3ccc(Cl)s3)c(-c3ccccc3Cl)cnc2c1C(=O)NN(C)c1ccccn1 [Example 410] | + +
Cc1nn2c(-c3ccc(C(F)(F)F)cc3)c(-c3ccccc3Cl)cnc2c1S(=O)(=O)N1CCCC1 [Example 238, 6-(2-chlorophenyl)-7-(4-trifluoromethylphenyl)-2-methyl-3-(1-pyrrolidinyl)sulfonylpyrazolo[1,5-a]pyrimidine] | + +
Cc1nn2c(-c3ccc(Cl)cc3F)c(-c3ccccc3C#N)cnc2c1C(=O)NN1CCCC1 [Example 427] | + +
CN(NC(=O)c1c(N(C)S(C)(=O)=O)nn2c(-c3ccc(Cl)cc3)c(-c3ccccc3Cl)cnc12)c1ccccn1 [Example 452] | + + +
Cc1nn2c(-c3ccc(Cl)cc3)c(-c3ccccc3Cl)cnc2c1C(=O)CN1CCS(=O)(=O)CC1 [Example 462] | + +
CN(NC(=O)c1cnn2c(-c3ccc(Cl)cc3)c(-c3ccccc3C#N)cnc12)c1cccc(Cl)c1 [Example 253] | + + +
CN(NC(=O)c1c(C(F)(F)F)nn2c(-c3ccc(Cl)cc3)c(-c3ccccc3Cl)cnc12)c1ccccn1 [Example 309] | + + +

Continued, values first:

IC50 (nM) | SMILES
+ + | CC(C)CNC(=O)c1cnn2c(-c3ccc(C(F)(F)F)cc3)c(-c3ccccc3Cl)cnc12 [Example 287]
+ + | O=C(NC1CSC1)c1cnn2c(-c3ccc(Cl)cc3)c(-c3ccccc3Cl)cnc12 [Example 324]
+ + | CC(=O)Nc1nn2c(-c3ccc(Cl)cc3)c(-c3ccccc3Cl)cnc2c1C(=O)NC1CCS(=O)(=O)C1 (stereo not shown) [Example 224]
+ + | Cc1nn2c(-c3ccc(Cl)cc3)c(-c3ccccc3Cl)cnc2c1C(=O)N[C@H]1CCS(=O)(=O)C1 [Example 185]
+ + | N#Cc1ccccc1-c1cnc2c(C(=O)NN3CCCCCC3)cnn2c1-c1ccc(Cl)cc1 [Example 252]
+ + | O=C(NC1CCCCC1)c1cnn2c(-c3ccc(Cl)cc3)c(-c3ccccc3Cl)cnc12 [Example 10]
